Results on nine compounds are retold here after ChEMBL document CHEMBL1152492, “DNA-targeting pyrroloquinoline-linked butenone and chalcones: synthesis and biological evaluation” (Eur J Med Chem, 2009).

In general, IC50 refers to the concentration at which inhibition is half-maximal. Higher therefore signals lower potency.

The subject of experiment [1] is Nucleic Acid. The experiment is described as follows: Binding affinity to salmon testes DNA assessed as occurrence of intercalative molecular complex by linear flow dichroism. The experiment is classed as nucleic-acid assay. Particulars: Salmonidae.
Experiment [2] deals with HL-60. Briefly: Antiproliferative activity against human HL60 cells after 72 hrs by trypan blue assay. Format: functional, cell-based. Particulars: HL-60, 72 h.
A short description of experiment [3]: Antiproliferative activity against human JR8 cells after 72 hrs by trypan blue assay. The experiment is classed as functional, cell-based. Particulars: JR8, 72 h.
Experiment [4] relates to HeLa. The experiment is described as follows: Antiproliferative activity against human HeLa cells after 72 hrs by trypan blue assay. The experiment is classed as functional, cell-based.
Experiment [5] addresses DNA topoisomerase 2-alpha (Homo sapiens) (UniProt P11388). Briefly: Inhibition of human recombinant topoisomerase 2 catalytic activity at 20 uM by agarose gel electrophoresis.
The target is the same in experiment [6]. The experiment is described as follows: Inhibition of human recombinant topoisomerase 2-mediated relaxation of supercoiled pBR322 DNA after 60 mins by agarose gel electrophoresis.
For experiment [7] the target is unchanged. The experiment is described as follows: Inhibition of human recombinant topoisomerase 2 assessed as induction of linear pBR322 DNA formation at 50 uM by agarose gel electrophoresis.
For experiment [8] the target is unchanged. The experiment is described as follows: Inhibition of human recombinant topoisomerase 2-mediated relaxation of supercoiled pBR322 DNA at 10 uM after 60 mins by agarose gel electrophoresis.
For experiment [9] the target is unchanged. The experiment is described as follows: Inhibition of human recombinant topoisomerase 2 assessed as induction of linear pBR322 DNA formation upto 20 uM by agarose gel electrophoresis.
The target is the same in experiment [10]. Briefly: Inhibition of human recombinant topoisomerase 2 assessed as induction of linear pBR322 DNA formation at 15 uM by agarose gel electrophoresis.

Calls of active or inactive are those of the source. No cut-off for these calls is given here.

Chain of DNA topoisomerase 2-alpha (Homo sapiens) (P11388 whole entry): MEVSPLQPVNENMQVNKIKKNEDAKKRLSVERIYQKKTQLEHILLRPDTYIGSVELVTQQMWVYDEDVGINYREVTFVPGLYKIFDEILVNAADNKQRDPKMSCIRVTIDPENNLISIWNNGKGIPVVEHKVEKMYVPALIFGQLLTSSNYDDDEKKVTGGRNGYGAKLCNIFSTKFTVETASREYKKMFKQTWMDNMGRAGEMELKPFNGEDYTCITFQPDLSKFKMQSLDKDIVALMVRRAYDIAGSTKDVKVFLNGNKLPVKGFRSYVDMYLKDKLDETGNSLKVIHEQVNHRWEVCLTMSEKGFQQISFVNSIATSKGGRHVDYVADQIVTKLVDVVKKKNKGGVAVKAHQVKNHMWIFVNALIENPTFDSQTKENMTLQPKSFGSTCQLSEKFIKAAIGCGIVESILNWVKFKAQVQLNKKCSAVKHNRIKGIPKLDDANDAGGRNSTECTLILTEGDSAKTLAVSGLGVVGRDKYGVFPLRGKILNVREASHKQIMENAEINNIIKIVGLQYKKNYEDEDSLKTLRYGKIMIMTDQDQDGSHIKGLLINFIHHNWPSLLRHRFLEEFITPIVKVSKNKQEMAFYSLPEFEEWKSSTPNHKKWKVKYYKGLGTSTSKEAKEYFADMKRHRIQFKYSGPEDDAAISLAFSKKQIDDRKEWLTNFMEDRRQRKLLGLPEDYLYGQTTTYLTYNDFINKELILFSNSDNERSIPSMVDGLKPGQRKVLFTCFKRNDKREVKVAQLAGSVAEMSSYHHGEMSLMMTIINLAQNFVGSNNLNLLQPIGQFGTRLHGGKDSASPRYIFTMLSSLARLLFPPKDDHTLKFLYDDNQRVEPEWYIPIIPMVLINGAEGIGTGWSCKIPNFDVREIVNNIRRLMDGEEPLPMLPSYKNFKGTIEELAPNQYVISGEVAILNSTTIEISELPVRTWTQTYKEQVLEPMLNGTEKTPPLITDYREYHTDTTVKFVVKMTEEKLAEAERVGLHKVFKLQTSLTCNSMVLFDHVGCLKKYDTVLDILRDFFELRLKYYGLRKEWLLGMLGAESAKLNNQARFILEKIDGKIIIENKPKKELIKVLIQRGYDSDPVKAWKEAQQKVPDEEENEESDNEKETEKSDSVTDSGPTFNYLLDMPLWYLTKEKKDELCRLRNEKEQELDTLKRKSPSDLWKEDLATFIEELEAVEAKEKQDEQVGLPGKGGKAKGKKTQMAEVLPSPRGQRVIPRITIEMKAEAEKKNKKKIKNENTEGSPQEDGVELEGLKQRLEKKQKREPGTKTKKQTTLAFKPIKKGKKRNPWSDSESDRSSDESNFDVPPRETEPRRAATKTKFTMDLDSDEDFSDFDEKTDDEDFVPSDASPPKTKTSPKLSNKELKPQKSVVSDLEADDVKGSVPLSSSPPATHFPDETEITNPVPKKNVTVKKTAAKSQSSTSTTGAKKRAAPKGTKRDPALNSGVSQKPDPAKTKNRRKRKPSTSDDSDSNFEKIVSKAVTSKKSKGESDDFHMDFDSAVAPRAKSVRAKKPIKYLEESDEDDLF

Take `O=C(/C=C/c1ccc[nH]1)c1ccccc1`: the outcome in experiment [1] was inactive. The 50% inhibitory concentration (IC50) in experiment [2], in experiment [3] and in experiment [4] was over 20 µM in each case.

Turning to `O=C(/C=C/c1ccc([N+](=O)[O-])cc1)c1ccccc1`, the outcome in experiment [1] and in experiment [5] was inactive. The results for the IC50 in [2], in experiment [3] and in experiment [4] were 6 µM, 7.8 µM and over 20 µM, respectively.

For `O=C(/C=C/c1cccs1)c1ccc(Nc2ccnc3ccc4[nH]ccc4c23)cc1`, the IC50 in [2] was found to be 3.2 µM; in [3] it was 2.1 µM; in [4], 5.3 µM.

With `CC(=O)/C=C/c1ccccc1` [BUTENONE], in [1], the outcome was inactive.

In the case of `O=C(/C=C/c1ccc[nH]1)c1ccc(Nc2ccnc3ccc4[nH]ccc4c23)cc1`, the IC50 turned out to be 5.6 µM in [2], 3.3 µM in experiment [3] and 18.1 µM in experiment [4].

`O=C(/C=C/c1ccc([N+](=O)[O-])cc1)c1ccc(Nc2ccnc3ccc4[nH]ccc4c23)cc1`: the Activity result in experiment [6] was “Dose-dependent effect”. The outcome in [7] and in experiment [9] was inactive. The figures for the IC50 in experiment [2], in experiment [3] and in [4] were 4.4 µM, 1.2 µM and 10.4 µM, respectively. The outcome in [8] and in experiment [5] was Active.

For `Cc1c2ccncc2c(C)c2c1[nH]c1ccccc12` [ELLIPTECINE], the outcome in [1] was Active. Moreover, the IC50 in experiment [3] is 1.1 µM.

As to `CC(=O)/C=C/c1ccc(Nc2ccnc3ccc4[nH]ccc4c23)cc1`, the Activity result in experiment [6] is “Dose-dependent effect”. For the same compound, the result in experiment [1] was Active. Moreover, the result in experiment [7], in experiment [9] and in [5] was inactive. For the same compound, the IC50 in [2] is 2.3 µM; in [3], 1.6 µM; in experiment [4], 7 µM.

With `COc1cc(NS(C)(=O)=O)ccc1Nc1c2ccccc2nc2ccccc12`, the outcome in [1] and in [10] was Active.
